The assay addresses human-cGAS (h-cGAS) (Homo sapiens, UniProt Q8N884). The experiment in a line: hcGAS Kinase-Glo Assay. It is filed as biochemical. The settings on record: 40 nM h-cGAS, 100 μM ATP, 100 μM GTP, 25 nM dsDNA, 3 h incubation, read-out: hcGAS potency IC50. Put shortly: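 IC50 values come from a luminescence-based Kinase-Glo measurement on human cGAS. Conditions follow the Lama et al. 2019 method with minor modifications.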
human-cGAS (h-cGAS), sequence (Q8N884 whole entry): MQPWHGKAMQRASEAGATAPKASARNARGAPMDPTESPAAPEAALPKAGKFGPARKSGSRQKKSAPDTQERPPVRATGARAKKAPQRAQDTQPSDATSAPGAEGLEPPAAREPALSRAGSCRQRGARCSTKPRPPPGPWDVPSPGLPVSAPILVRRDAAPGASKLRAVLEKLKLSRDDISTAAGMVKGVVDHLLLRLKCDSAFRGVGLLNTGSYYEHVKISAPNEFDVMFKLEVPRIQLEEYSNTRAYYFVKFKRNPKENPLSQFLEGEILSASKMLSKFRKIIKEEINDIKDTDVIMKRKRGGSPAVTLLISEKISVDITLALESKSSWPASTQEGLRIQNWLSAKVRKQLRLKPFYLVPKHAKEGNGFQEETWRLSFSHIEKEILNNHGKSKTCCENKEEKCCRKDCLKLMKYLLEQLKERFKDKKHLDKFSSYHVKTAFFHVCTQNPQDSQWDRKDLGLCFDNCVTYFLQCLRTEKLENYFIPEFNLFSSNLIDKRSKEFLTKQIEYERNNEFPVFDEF
In general, IC50 refers to the concentration that gives 50% inhibition. For the compound `CSc1nnc(NC(=O)c2nnc(N(C)C(C)c3ccccc3)o2)s1` (stereo not shown) [Compound 114, 5-[methyl(1-phenylethyl)amino]-N-[5-(methylsulfanyl)-1,3,4-thiadiazol-2-yl]-1,3,4-oxadiazole-2-carboxamide], the IC50 was in the range of 500 to 1000 nM.
With `Cc1ccccc1-c1nnc(NC(=O)c2onc3ccccc23)s1` [Compound 27, N-(5-(o-tolyl)-1,3,4-thiadiazol-2-yl)benzo[c]isoxazole-3-carboxamide], the IC50 lay within 500 to 1000 nM.
For `CSc1nnc(NC(=O)c2nnc(-c3cccnc3)o2)s1` [Compound 107, N-[5-(methylsulfanyl)-1,3,4-thiadiazol-2-yl]-5-(pyridin-3-yl)-1,3,4-oxadiazole-2-carboxamide], the IC50 was in the range of 500 to 1000 nM.
`CSc1nnc(NC(=O)c2cc(-c3ccc(C)cc3)cc(=O)o2)s1` [Compound 250, N-(5-methylsulfanyl-1,3,4-thiadiazol-2-yl)-6-oxo-4-(p-tolyl)pyran-2-carboxamide]: the IC50 lay in the range of 100 to 500 nM.
Turning to `CSc1nnc(NC(=O)c2cc(-c3cccc4c3CCC4)no2)s1` [Compound 68, 3-(2,3-dihydro-1H-inden-4-yl)-N-(5-(methylthio)-1,3,4-thiadiazol-2-yl)isoxazole-5-carboxamide], the IC50 was 500 to 1000 nM.
With `CSc1nnc(NC(=O)c2onc3cc(C(=O)N(C)C)ccc23)s1` [Compound 192, N^6,N^6-dimethyl-N^3-(5-(methylthio)-1,3,4-thiadiazol-2-yl)benzo[c]isoxazole-3,6-dicarboxamide], the IC50 was ≥ 1000 nM.
In the case of `CSc1nnc(NC(=O)c2cc(C3CCCC3)no2)s1` [Compound 85, 3-cyclopentyl-N-(5-(methylthio)-1,3,4-thiadiazol-2-yl)isoxazole-5-carboxamide], the IC50 is 500 to 1000 nM.
On to `CSc1nnc(NC(=O)c2cc(-c3ccccc3Cl)no2)s1` [Compound 216], for which the IC50 was in the range of 500 to 1000 nM.
On to `CSc1nnc(NC(=O)c2nnc(N3CCCC3CO)o2)s1` (stereo not shown) [Compound 115, 5-[2-(hydroxymethyl)pyrrolidin-1-yl]-N-[5-(methylsulfanyl)-1,3,4-thiadiazol-2-yl]-1,3,4-oxadiazole-2-carboxamide], for which the half-inhibitory concentration (IC50) is 500 to 1000 nM.
Take `COC(=O)c1cc(C(=O)Nc2nnc(-c3ccccc3Cl)s2)on1` [Compound 1, Methyl 5-((5-(2-chlorophenyl)-1,3,4-thiadiazol-2-yl)carbamoyl)isoxazole-3-carboxylate]: the IC50 is 100 to 500 nM.
For `CSc1nnc(NC(=O)c2cc(-c3cccc(F)c3)cc(=O)o2)s1` [Compound 238, 4-(3-fluorophenyl)-N-(5-methylsulfanyl-1,3,4-thiadiazol-2-yl)-6-oxo-pyran-2-carboxamide], the IC50 is 100 to 500 nM.
On to `CSc1nnc(NC(=O)c2onc3ccc(Sc4ccccc4)cc23)s1` [Compound 163, N-(5-(methylthio)-1,3,4-thiadiazol-2-yl)-5-(phenylthio)benzo[c]isoxazole-3-carboxamide], for which the IC50 was ≥ 1000 nM.
As for `CSc1nnc(NC(=O)c2cc(-c3ccc4cccnc4c3)cc(=O)o2)s1` [Compound 270, N-(5-(methylthio)-1,3,4-thiadiazol-2-yl)-2-oxo-4-(quinolin-7-yl)-2H-pyran-6-carboxamide], the IC50 was 100 to 500 nM.
For `CSc1nnc(NC(=O)c2nnc(-c3c(F)cccc3F)o2)s1` [Compound 45, 5-(2,6-difluorophenyl)-N-(5-(methylthio)-1,3,4-thiadiazol-2-yl)-1,3,4-oxadiazole-2-carboxamide], the 50% inhibitory concentration (IC50) lay within 500 to 1000 nM.
For `CSc1nnc(NC(=O)c2nnc(N3CCCC(C)(C)C3)o2)s1` [Compound 119, 5-(3,3-dimethylpiperidin-1-yl)-N-(5-(methylthio)-1,3,4-thiadiazol-2-yl)-1,3,4-oxadiazole-2-carboxamide], the IC50 was 500 to 1000 nM.
For `Cc1ccnc(-c2cc(C(=O)Nc3nnc(-c4ccccc4Cl)s3)on2)n1` [Compound 157, N-(5-(2-Chlorophenyl)-1,3,4-thiadiazol-2-yl)-3-(4-methylpyrimidin-2-yl)isoxazole-5-carboxamide], the IC50 fell in the range of 100 to 500 nM.
Regarding `CN(C)c1nnc(NC(=O)c2onc3c2ccc2cccnc23)s1` [Compound 14, N-(5-(dimethylamino)-1,3,4-thiadiazol-2-yl)isoxazolo[4,3-h]quinoline-3-carboxamide], the IC50 is ≥ 1000 nM.
On to `CSc1nnc(NC(=O)c2onc3cc(C)ccc23)s1` [Compound 221, 6-methyl-N-[5-(methylsulfanyl)-1,3,4-thiadiazol-2-yl]-2,1-benzoxazole-3-carboxamide], for which the IC50 lay within 100 to 500 nM.
With `CSc1nnc(NC(=O)c2cc(-c3cccc4c3ncn4C)cc(=O)o2)s1` [Compound 274, 4-(1-methyl-1H-benzo[d]imidazol-4-yl)-N-(5-(methylthio)-1,3,4-thiadiazol-2-yl)-2-oxo-2H-pyran-6-carboxamide], the concentration for half-maximal inhibition (IC50) was 100 to 500 nM.
On to `CSc1nnc(NC(=O)c2onc3ccc(Cc4ccc(O)c(O)c4)cc23)s1` [Compound 186, 5-(3,4-Dihydroxybenzyl)-N-(5-(methylthio)-1,3,4-thiadiazol-2-yl)benzo[c]isoxazole-3-carboxamide], for which the IC50 fell in the range of 500 to 1000 nM.
As to `CSc1nnc(NC(=O)c2cc(-c3cccc(F)c3F)no2)s1` [Compound 151, 3-(2,3-Difluorophenyl)-N-(5-(methylthio)-1,3,4-thiadiazol-2-yl)isoxazole-5-carboxamide], the concentration for half-maximal inhibition (IC50) lay in the range of 500 to 1000 nM.
Consider `COc1cc(C(=O)Nc2nnc(-c3ccccc3Cl)s2)on1` [Compound 31, N-(5-(2-chlorophenyl)-1,3,4-thiadiazol-2-yl)-3-methoxyisoxazole-5-carboxamide], for which the IC50 lay within 100 to 500 nM.
Take `CCc1cc(C(=O)Nc2nnc(-c3ccccc3Cl)s2)on1` [Compound 33, N-(5-(2-chlorophenyl)-1,3,4-thiadiazol-2-yl)-3-ethylisoxazole-5-carboxamide]: the half-inhibitory concentration (IC50) lay in the range of 100 to 500 nM.
`CSc1nnc(NC(=O)c2cc(O)cc(-c3ccccc3)n2)s1` [Compound 200, 4-hydroxy-N-(5-(methylthio)-1,3,4-thiadiazol-2-yl)-6-phenylpicolinamide]: the IC50 was ≥ 1000 nM.
For the compound `O=C(O)c1cc(C(=O)Nc2nnc(-c3ccccc3Cl)s2)on1` [Compound 2, 5-((5-(2-chlorophenyl)-1,3,4-thiadiazol-2-yl)carbamoyl)isoxazole-3-carboxylic acid], the IC50 is < 100 nM.
Consider `COc1cccc(-c2cc(C(=O)Nc3nnc(SC)s3)oc(=O)c2)c1` [Compound 241, 4-(3-methoxyphenyl)-N-(5-methylsulfanyl-1,3,4-thiadiazol-2-yl)-6-oxo-pyran-2-carboxamide], for which the IC50 was 100 to 500 nM.
Consider `CSc1nnc(NC(=O)c2nnc(-c3ccccc3)o2)s1` [Compound 235, N-[5-(methylsulfanyl)-1,3,4-thiadiazol-2-yl]-5-phenyl-1,3,4-oxadiazole-2-carboxamide], for which the IC50 was in the range of 500 to 1000 nM.
The same measure for `CSc1nnc(NC(=O)c2cc(-c3cccc4cccnc34)cc(=O)o2)s1` [Compound 246, N-(5-methylsulfanyl-1,3,4-thiadiazol-2-yl)-6-oxo-4-(8-quinolyl)pyran-2-carboxamide]: 100 to 500 nM; for `CSc1nnc(NC(=O)c2cc(-c3nccc4ccccc34)no2)s1` [Compound 150, 3-(Isoquinolin-1-yl)-N-(5-(methylthio)-1,3,4-thiadiazol-2-yl)isoxazole-5-carboxamide]: 500 to 1000 nM; for `CSc1nnc(NC(=O)c2cc(=O)c3cccc(O)c3[nH]2)s1` [Compound 199, 8-hydroxy-N-(5-(methylthio)-1,3,4-thiadiazol-2-yl)-4-oxo-1,4-dihydroquinoline-2-carboxamide]: ≥ 1000 nM.
To `CSc1nnc(NC(=O)c2cc(-c3cccc(Cl)c3)no2)s1` [Compound 209, 3-(3-chlorophenyl)-N-[5-(methylsulfanyl)-1,3,4-thiadiazol-2-yl]-1,2-oxazole-5-carboxamide] belongs 500 to 1000 nM; to `CSc1nnc(NC(=O)c2cc(-c3ccc(F)cc3F)no2)s1` [Compound 48, 3-(2,4-difluorophenyl)-N-(5-(methylthio)-1,3,4-thiadiazol-2-yl)isoxazole-5-carboxamide], 500 to 1000 nM.
For the compound `CC(C)(C)OC(=O)Nc1cc(C(=O)Nc2nnc(-c3ccccc3Cl)s2)on1` [Compound 3, tert-butyl (5-((5-(2-chlorophenyl)-1,3,4-thiadiazol-2-yl)carbamoyl)isoxazol-3-yl)carbamate], the IC50 was 100 to 500 nM.
Turning to `CSc1nnc(NC(=O)c2cc(-c3cccc(C)c3)cc(=O)o2)s1` [Compound 249, N-(5-methylsulfanyl-1,3,4-thiadiazol-2-yl)-4-(m-tolyl)-6-oxo-pyran-2-carboxamide], the IC50 lay in the range of 100 to 500 nM.
As for `CSc1nnc(NC(=O)c2nnc(N3CCCC3c3ccccc3)o2)s1` (stereo not shown) [Compound 123, N-(5-(methylthio)-1,3,4-thiadiazol-2-yl)-5-(2-phenylpyrrolidin-1-yl)-1.3,4-oxadiazole-2-carboxamide], the 50% inhibitory concentration (IC50) fell in the range of 100 to 500 nM.
Consider `O=C(Nc1nnc(-c2cccc(F)c2)s1)c1onc2ccccc12` [Compound 25, N-(5-(3-fluorophenyl)-1,3,4-thiadiazol-2-yl)benzo[c]isoxazole-3-carboxamide], for which the IC50 was ≥ 1000 nM.
On to `CSc1nnc(NC(=O)c2nc(-c3ccccc3)no2)s1` [Compound 234, N-[5-(methylsulfanyl)-1,3,4-thiadiazol-2-yl]-3-phenyl-1,2,4-oxadiazole-5-carboxamide], for which the IC50 fell in the range of 500 to 1000 nM.
For `CSc1nnc(NC(=O)c2nnc(N3CCCC[C@@H]3c3ccccc3)o2)s1` (single isomer, unassigned) [Compound 121*], the IC50 fell in the range of 500 to 1000 nM.
The same measure for `COC(=O)c1cc(C(=O)Nc2nnc(SC)s2)on1` [Compound 15, methyl 5-((5-(methylthio)-1,3,4-thiadiazol-2-yl)carbamoyl)isoxazole-3-carboxylate]: 500 to 1000 nM.
Take `CSc1nnc(NC(=O)c2cc(-c3cncs3)no2)s1` [Compound 141, N-(5-(methylthio)-1,3,4-thiadiazol-2-yl)-3-(thiazol-5-yl)isoxazole-5-carboxamide]: the IC50 was ≥ 1000 nM.

The values are drawn from patent US20250002487A1, “HETEROCYCLIC COMPOUNDS AND USES THEREOF” (Ventus Therapeutics U.S., Inc., priority 2021, published 2025).
